According to patent US11191746B2, “Composition for inhibiting a growth of cancer stem cells comprising ciclesonide” (JEJU NATIONAL UNIVERSITY INDUSTRY-ACADEMIC COOPERATION …, priority 2016, dated 2021):

What was measured:
[1] = system: MDA-MB-231 cells; experiment: Scratch migration analysis; assay type: cell-based, human; details: MDA-MB-231, wound healing at 18 hours
Protocol: (§1) MDA-MB-231 cells or A549 cells were inoculated into a 6-well plate and grown to 90% confluency. A scratch was made on the cell layer using a sterile white micropipette tip. After washing with DMEM medium, the breast cancer cells or lung cancer cells were treated with ciclesonide or DMSO. At 18 hours, wounded areas were photographed using an optical microscope at a magnification of ×40.

[2] = system: A549 cells; experiment: Scratch migration analysis; assay type: cell-based, human; details: A549, wound healing at 18 hours
Protocol: as §1

[3] = system: A549 cells; experiment: Lung cancer cell proliferation assay (MTS); assay type: cell-based, human; details: A549, 48 hours after treatment
Protocol: The proliferation rates of MCF-7 cells and MDA-MB-231 cells were measured using a CellTiter 96® aqueous one solution cell proliferation kit. The MCF-7 cells or the MDA-MB-231 cells were cultured in a 96-well plate for 48 hours in the presence of ciclesonide at concentrations of 0 μM, 5 μM, 10 μM, 20 μM, 40 μM, and 80 μM. In accordance with the manufacturer's protocol, absorbance at 490 nm was determined using a 96-well plate reader (Dynex Revelation, Dynex Ltd., Billingshurst, UK). Respective data was determined by measuring three sets.
An experiment was performed in the same manner as in Example 10-1, except that A549 cells were used as lung cancer cells and treated with ciclesonide at concentrations of 0 μM, 10 μM, 20 μM, 40 μM, 80 μM, and 100 μM.

[4] = system: MCF-7 cell-derived mammospheres; experiment: Mammosphere formation; assay type: cell-based, human
Protocol: (§2) Human breast cancer cells, MCF-7, were obtained from American Type Culture Collection (ATCC; Manassas, Va., USA). MCF-7 cells and MDA-MB-231 cells were cultured in Dulbecco's Modified Essential Medium (DMEM; Hyclone, Logan, Utah, USA) containing 10% fetal bovine serum (FBS; Hyclone), 100 U/ml of penicillin, and 100 μg/ml of streptomycin (Hyclone). The MCF-7 cells were maintained in a humidified incubator containing 5% CO2 at 37° C. The cells were plated in 10 cm culture dishes at a density of 1×10^6 cells. To establish primary mammospheres, single cell-suspended MCF-7 cells were inoculated into ultra-low attachment 6-well plates containing 2 ml of complete MammoCult™ medium (StemCell Technologies, Vancouver, BC, Canada) at a density of 3.5 to 4×10^4 cells/well. The complete MammoCult™ medium was supplemented with 4 μg/ml of heparin, 0.48 μg/ml of hydrocortisone, 100 U/ml of penicillin, and 100 μg/ml of streptomycin. The cells were incubated in a 5% CO2 incubator at 37° C. for 7 days.
(§3) On day 10 of culture, cell culture plates were placed on a scanner (Epson Perfection V700 PHOTO, Epson Korea, Co, Seoul, Korea) to obtain 8-bit gray scale images of mammospheres. The images were acquired using a NICE software program downloaded from ftp://ftp.nist.gov/pub/physics/mlclarke/NICE at a low resolution of 300 dpi. For counting, a desired number of rows and columns (e.g., 2×3 for a 6-well plate) were selected to generate ROIs and after selecting the elliptical setting of the NICE program, the individual ROIs were defined by adjusting the movement and size of the provided ROI shapes. The background signals of the images were negated using a threshold algorithm, and the selected images were automatically counted. To analyze the formation of mammospheres, mammosphere formation efficiency (MFE, %) was determined by the following equation: MFE (%)=the number of mammospheres per well/a total number of plated cells per well×100.

[5] = system: MDA-MB-231 cell-derived mammospheres; experiment: Mammosphere formation; assay type: cell-based, human
Protocol: as §2, §3

[6] = system: A549 cell xenograft tumor; experiment: Lung cancer xenograft model in NOD-SCID male nude mice; assay type: in vivo; details: 10 mg/kg
Protocol: A total of 12 NOD-SCID (BALB/cSIc (nu/nu)) male nude mice producing lung cancer cells were divided into two groups. […] The volume of tumors of each control mouse was measured every three days and calculated by the following equation: (width×length^2)/2. The other six nude mice received neoadjuvant chemotherapy using a test drug by infusion at an optimum dose of 10 mg/kg/day.

[7] = system: IL-6; experiment: Human inflammatory cytokine assay (CBA), mammosphere culture solution; assay type: cell-based; details: MDA-MB-231 mammosphere culture solution
Protocol: (§4) Mixed capture beads were vortexed and 50 μl of beads were added to assay tubes. 50 μl of human inflammatory cytokine standard and the cultured tumorsphere solution were added to the assay tubes, and then mixed with a cytokine PE solution. After 3 hours, the mixed solution was washed and analyzed by flow cytometry (Accuri C6, BD, San Diego, Calif., USA).

[8] = system: IL-8; experiment: as above; assay type: cell-based; details: MDA-MB-231 mammosphere culture solution
Protocol: as §4

[9] = system: tumorspheres; experiment: Tumorsphere proliferation (cell counting); assay type: cell-based, human; details: tumorspheres treated 2 days, single cells replated and counted on days 1 to 3
Protocol: FIG. 11B illustrates the effect of ciclesonide on tumorsphere formation wherein ciclesonide inhibits the growth of tumorspheres, tumorspheres having been treated with ciclesonide or DMSO for 2 days were separated into single cells and plated in 6 cm dishes at the same density, 24 hours after plating, the cells were counted, on days 1, 2, and 3, the cells were counted three times, and plotted as mean values, and the data was expressed as the mean±SD for the three independent experimental results. *p<0.05 vs. DMSO-treated control; and […]

[10] = system: A549 cell-derived tumorspheres; experiment: Tumorsphere formation; assay type: cell-based, human; details: A549 primary tumorspheres
Protocol: Human lung cancer cells, A549, were cultured under the same culture conditions as those for the breast cancer cells of Example 2-1. To establish primary tumorspheres, single cell-suspended A549 cells were inoculated into ultra-low attachment 6-well plates containing 2 ml of Cancer Stem Premium medium (ProMab Biotechnologies Inc, Richmond, Calif., USA) at a density of 5×10^4 cells/well. The cells were incubated in a 5% CO2 incubator at 37° C. for 10 days.
Lung cancer tumorspheres were counted in the same manner as in Example 3-1, and for the analysis of tumorsphere formation, tumorsphere formation efficiency (TFE, %) was determined by the following equation: TFE (%)=number of tumorspheres per well/total number of plated cells per well×100.

CC(C)C(=O)OCC(=O)[C@@]12O[C@H](C3CCCCC3)O[C@@H]1C[C@H]1[C@@H]3CCC4=CC(=O)C=C[C@]4(C)[C@H]3[C@@H](O)C[C@@]12C [ciclesonide] was tested, and the migration [1] was “inhibited”, the migration [2] was “inhibited” and the “concentration at which growth of the cell line was inhibited in a concentration-dependent manner” value [3] was no less than 40 µM. For the same compound, the “growth of breast cancer stem cells” value ([4]; MCF-7 mammospheres, 10 μM) was “significantly inhibited”, the “size of the mammospheres” value ([4]; MCF-7 primary mammospheres) was “reduced” and the “reduction of the number of mammospheres” value ([4]; MCF-7 primary mammospheres, 5 μM or 10 μM, 7 days) was 90%. The “growth of breast cancer stem cells” value ([5]; MDA-MB-231 mammospheres, 10 μM) was “significantly inhibited”, the “size of the mammospheres” value ([5]; MDA-MB-231 primary mammospheres) was “reduced” and the “reduction of the number of mammospheres” value ([5]; MDA-MB-231 primary mammospheres, 10 μM, 7 days) was 90%. The “tumor volume vs control not treated” value [6] was “smaller”, the “tumor weight vs control not treated” value [6] was “smaller” and the “production level of secreted IL-6” value [7] was “reduced”. For the same compound, the “production level of secreted IL-8” value [8] was “reduced”, the “growth of tumorspheres (number of survived cancer cells)” value [9] was “inhibited” and the “size of the tumorspheres” value [10] was “significantly reduced”. The “reduction of the number of tumorspheres” value ([10]; 5 μM and 10 μM) was 90%.
